According to ChEMBL document CHEMBL1201862, “PubChem BioAssay data set” (2004):
Each block holds one compound with its values, some of them ahead of it. The source made the active and inactive calls.

Experiments:
[1] = biological target: Tyrosine-protein kinase receptor TYRO3 (Homo sapiens, UniProt Q06418); assay type: functional;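 also: TYRO3 value obtained as one member of a kinome-wide profiling panel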
[2] = biological target: Interleukin-1 receptor-associated kinase 4 (Homo sapiens, UniProt Q9NWZ3); assay type: functional
[3] = biological target: Mitogen-activated protein kinase kinase kinase kinase 2 (Homo sapiens, UniProt Q12851); assay type: functional;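 also: measured as one member of a kinome-wide kinase panel, with MAP4K2 as the panel entry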
[4] = biological target: Calcium/calmodulin-dependent protein kinase type II subunit gamma (Homo sapiens, UniProt Q13555); assay type: functional
Sequence of Calcium/calmodulin-dependent protein kinase type II subunit gamma (Q13555 whole entry): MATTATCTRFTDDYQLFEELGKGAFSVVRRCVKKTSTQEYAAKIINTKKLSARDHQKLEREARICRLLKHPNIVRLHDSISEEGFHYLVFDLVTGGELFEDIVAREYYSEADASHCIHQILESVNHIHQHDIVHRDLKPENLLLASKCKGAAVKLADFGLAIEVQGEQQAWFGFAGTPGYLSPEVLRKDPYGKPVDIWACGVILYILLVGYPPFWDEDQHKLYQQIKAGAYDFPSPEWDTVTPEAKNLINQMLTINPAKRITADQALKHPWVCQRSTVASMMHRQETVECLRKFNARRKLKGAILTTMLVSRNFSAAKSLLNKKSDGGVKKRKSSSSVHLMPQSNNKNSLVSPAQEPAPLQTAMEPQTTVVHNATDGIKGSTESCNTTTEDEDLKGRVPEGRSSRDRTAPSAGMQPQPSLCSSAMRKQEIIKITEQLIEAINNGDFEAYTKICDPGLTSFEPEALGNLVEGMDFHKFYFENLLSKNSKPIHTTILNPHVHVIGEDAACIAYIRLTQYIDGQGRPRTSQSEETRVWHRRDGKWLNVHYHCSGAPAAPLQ

[5] = biological target: RAC-gamma serine/threonine-protein kinase (Homo sapiens, UniProt Q9Y243); assay type: functional
[6] = biological target: Receptor-type tyrosine-protein kinase FLT3 (Homo sapiens, UniProt P36888); assay type: functional;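 also: FLT3 was tested as one member of a kinome-wide kinase panel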
Sequence of Receptor-type tyrosine-protein kinase FLT3 (P36888 whole entry): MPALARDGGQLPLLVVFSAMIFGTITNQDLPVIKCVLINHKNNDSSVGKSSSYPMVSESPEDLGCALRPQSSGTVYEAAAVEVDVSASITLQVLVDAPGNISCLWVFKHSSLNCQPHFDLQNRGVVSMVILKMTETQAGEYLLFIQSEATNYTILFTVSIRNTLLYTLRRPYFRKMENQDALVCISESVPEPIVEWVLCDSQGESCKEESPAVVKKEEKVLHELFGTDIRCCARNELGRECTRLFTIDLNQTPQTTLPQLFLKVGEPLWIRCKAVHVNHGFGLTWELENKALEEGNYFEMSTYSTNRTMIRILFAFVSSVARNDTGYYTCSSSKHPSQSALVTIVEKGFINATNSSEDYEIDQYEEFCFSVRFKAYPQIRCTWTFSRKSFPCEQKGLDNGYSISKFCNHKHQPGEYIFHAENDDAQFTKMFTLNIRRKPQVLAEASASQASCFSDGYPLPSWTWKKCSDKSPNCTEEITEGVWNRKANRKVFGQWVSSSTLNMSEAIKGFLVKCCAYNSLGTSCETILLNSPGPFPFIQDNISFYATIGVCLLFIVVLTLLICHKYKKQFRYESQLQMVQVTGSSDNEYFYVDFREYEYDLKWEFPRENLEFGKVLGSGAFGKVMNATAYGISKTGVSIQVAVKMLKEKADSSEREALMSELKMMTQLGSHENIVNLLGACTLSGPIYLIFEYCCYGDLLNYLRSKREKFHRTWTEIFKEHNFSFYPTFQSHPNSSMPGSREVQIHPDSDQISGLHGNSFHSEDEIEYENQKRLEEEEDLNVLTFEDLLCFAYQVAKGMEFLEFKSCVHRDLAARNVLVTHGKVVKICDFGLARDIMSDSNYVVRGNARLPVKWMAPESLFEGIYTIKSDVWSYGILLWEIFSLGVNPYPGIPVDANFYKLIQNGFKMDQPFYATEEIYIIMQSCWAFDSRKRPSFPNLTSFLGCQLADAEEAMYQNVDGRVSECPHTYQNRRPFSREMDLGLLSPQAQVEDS

[7] = biological target: Protein kinase C delta type (Homo sapiens, UniProt Q05655); assay type: functional
[8] = biological target: Dual specificity protein kinase CLK4 (Homo sapiens, UniProt Q9HAZ1); assay type: functional
[9] = biological target: Homeodomain-interacting protein kinase 2 (Homo sapiens, UniProt Q9H2X6); assay type: functional;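 also: measured within a kinome-wide kinase profiling panel, HIPK2 being one panel member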
[10] = biological target: Tyrosine-protein kinase SYK (Homo sapiens, UniProt P43405); assay type: functional
[11] = biological target: Dual specificity tyrosine-phosphorylation-regulated kinase 4 (Homo sapiens, UniProt Q9NR20); assay type: functional
[12] = biological target: Serine/threonine-protein kinase 17A (Homo sapiens, UniProt Q9UEE5); assay type: functional
[13] = biological target: Serine/threonine-protein kinase PAK 1 (Homo sapiens, UniProt Q13153); assay type: functional
[14] = biological target: Serine/threonine-protein kinase D2 (Homo sapiens, UniProt Q9BZL6); assay type: functional;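 also: measured against PRKD2 as one member of a kinome-wide kinase profiling panel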
Sequence of Serine/threonine-protein kinase D2 (Q9BZL6 whole entry): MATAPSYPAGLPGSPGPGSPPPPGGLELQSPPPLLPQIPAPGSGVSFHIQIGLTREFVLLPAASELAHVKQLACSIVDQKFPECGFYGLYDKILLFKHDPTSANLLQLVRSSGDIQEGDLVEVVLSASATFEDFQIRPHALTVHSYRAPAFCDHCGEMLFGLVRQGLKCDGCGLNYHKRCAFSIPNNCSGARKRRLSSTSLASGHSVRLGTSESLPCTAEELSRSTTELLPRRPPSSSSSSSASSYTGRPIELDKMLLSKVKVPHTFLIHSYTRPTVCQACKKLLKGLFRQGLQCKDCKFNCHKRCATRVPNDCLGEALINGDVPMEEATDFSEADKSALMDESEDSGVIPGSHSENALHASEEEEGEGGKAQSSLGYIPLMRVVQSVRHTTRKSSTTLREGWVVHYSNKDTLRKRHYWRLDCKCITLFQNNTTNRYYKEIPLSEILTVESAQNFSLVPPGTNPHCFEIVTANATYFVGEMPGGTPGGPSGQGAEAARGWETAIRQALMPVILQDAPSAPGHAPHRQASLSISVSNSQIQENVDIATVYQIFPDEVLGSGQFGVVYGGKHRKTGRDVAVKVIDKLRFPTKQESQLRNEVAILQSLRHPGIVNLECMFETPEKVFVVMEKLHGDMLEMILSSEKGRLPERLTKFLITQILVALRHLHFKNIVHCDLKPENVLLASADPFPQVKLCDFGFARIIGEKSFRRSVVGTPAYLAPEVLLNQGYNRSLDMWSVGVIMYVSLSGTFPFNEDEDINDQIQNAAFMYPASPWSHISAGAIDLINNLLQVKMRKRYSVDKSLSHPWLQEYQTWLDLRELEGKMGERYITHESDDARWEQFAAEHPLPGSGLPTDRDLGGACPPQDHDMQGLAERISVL

[15] = biological target: Proto-oncogene tyrosine-protein kinase Src (Homo sapiens, UniProt P12931); assay type: functional;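 also: SRC entry within a kinome-wide kinase profiling panel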
[16] = biological target: Serine/threonine-protein kinase PLK1 (Homo sapiens, UniProt P53350); assay type: functional;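 also: PLK1 measured as one member of a kinome-wide profiling panel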
Sequence of Serine/threonine-protein kinase PLK1 (P53350 whole entry, canonical isoform): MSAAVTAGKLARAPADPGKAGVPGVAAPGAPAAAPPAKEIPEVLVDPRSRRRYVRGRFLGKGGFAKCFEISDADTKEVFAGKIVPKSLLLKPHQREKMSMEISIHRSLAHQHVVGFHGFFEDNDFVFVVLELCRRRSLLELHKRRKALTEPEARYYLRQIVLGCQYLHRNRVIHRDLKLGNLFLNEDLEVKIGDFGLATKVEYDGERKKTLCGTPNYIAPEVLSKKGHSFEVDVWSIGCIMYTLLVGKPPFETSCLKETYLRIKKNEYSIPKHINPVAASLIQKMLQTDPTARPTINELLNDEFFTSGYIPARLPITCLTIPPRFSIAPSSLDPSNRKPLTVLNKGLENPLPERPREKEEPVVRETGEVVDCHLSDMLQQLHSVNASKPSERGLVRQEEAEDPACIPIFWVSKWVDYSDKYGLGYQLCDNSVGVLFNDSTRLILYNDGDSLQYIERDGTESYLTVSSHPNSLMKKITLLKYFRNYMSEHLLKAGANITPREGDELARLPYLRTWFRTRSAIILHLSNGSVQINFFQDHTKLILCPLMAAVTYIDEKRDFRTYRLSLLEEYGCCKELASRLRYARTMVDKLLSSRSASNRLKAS

[17] = biological target: Casein kinase I isoform alpha (Homo sapiens, UniProt P48729); assay type: functional
Sequence of Casein kinase I isoform alpha (P48729 whole entry, canonical isoform): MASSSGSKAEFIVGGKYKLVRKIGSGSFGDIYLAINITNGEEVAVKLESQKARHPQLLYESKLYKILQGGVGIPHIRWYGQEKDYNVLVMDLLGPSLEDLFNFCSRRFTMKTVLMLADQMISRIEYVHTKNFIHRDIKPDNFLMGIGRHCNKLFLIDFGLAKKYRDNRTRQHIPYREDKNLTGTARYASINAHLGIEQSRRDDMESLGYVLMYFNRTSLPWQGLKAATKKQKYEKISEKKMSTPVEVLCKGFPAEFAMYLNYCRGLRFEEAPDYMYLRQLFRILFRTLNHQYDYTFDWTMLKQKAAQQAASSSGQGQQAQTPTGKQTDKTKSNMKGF

[18] = biological target: Fibroblast growth factor receptor 3 (Homo sapiens, UniProt P22607); assay type: functional
[19] = biological target: Macrophage colony-stimulating factor 1 receptor (Homo sapiens, UniProt P07333); assay type: functional;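 also: value comes from the Navigating the Kinome screening panel, CSF1R member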
[20] = biological target: Serine/threonine-protein kinase pim-1 (Homo sapiens, UniProt P11309); assay type: functional
[21] = biological target: Mitogen-activated protein kinase 12 (Homo sapiens, UniProt P53778); assay type: functional;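 also: measured as one member of a kinome-wide kinase profiling panel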
[22] = biological target: Receptor tyrosine-protein kinase erbB-4 (Homo sapiens, UniProt Q15303); assay type: functional;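 also: ERBB4 member of a kinome-wide kinase profiling panel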
Sequence of Receptor tyrosine-protein kinase erbB-4 (Q15303 whole entry): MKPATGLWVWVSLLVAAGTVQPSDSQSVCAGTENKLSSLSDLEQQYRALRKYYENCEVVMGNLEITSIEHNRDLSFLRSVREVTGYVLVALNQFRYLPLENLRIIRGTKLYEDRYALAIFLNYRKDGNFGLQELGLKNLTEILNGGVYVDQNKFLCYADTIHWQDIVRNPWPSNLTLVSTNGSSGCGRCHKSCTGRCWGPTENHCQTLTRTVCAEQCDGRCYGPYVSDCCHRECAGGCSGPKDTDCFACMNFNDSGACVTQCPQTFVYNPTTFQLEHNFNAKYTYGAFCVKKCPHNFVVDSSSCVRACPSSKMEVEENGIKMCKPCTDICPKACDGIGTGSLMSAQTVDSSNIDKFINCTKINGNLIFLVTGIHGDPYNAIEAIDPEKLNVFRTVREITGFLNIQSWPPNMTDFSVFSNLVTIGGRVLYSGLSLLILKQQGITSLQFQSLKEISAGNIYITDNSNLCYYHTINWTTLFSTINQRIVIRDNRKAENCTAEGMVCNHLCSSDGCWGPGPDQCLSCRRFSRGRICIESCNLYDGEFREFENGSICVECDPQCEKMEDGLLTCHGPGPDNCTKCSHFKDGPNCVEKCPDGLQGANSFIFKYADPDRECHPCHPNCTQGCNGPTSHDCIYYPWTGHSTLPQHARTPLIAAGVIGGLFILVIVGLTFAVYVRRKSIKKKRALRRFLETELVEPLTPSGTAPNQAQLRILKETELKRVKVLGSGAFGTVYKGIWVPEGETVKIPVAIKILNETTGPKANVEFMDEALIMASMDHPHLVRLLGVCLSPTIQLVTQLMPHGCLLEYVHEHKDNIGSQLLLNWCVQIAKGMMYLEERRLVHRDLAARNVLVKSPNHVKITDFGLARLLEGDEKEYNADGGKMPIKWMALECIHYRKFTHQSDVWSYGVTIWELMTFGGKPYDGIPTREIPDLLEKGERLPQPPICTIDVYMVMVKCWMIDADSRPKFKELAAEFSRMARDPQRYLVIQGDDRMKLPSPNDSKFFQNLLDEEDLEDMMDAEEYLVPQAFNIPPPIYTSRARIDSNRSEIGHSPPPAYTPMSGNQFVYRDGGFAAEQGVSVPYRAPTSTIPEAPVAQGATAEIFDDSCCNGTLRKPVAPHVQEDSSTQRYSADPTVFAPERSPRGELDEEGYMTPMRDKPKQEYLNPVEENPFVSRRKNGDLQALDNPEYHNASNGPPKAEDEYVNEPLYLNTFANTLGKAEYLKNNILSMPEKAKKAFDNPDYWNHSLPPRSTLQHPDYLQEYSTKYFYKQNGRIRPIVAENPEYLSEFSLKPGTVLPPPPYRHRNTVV

[23] = biological target: Calcium/calmodulin-dependent protein kinase type 1 (Homo sapiens, UniProt Q14012); assay type: functional
Sequence of Calcium/calmodulin-dependent protein kinase type 1 (Q14012 whole entry): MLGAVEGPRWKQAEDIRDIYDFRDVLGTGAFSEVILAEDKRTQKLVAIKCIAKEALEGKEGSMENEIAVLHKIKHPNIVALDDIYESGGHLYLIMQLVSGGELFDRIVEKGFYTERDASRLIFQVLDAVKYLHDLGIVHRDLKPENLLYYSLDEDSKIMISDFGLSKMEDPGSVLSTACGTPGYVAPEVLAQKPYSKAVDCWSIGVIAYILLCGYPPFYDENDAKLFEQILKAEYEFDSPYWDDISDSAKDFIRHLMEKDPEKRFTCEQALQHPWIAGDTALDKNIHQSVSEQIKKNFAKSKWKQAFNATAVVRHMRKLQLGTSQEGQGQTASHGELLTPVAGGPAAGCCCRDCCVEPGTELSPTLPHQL

[24] = biological target: Serine/threonine-protein kinase TAO1 (Homo sapiens, UniProt Q7L7X3); assay type: functional
[25] = biological target: Misshapen-like kinase 1 (Homo sapiens, UniProt Q8N4C8); assay type: functional;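 also: kinome panel screen with MINK as the panel member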
[26] = biological target: Maternal embryonic leucine zipper kinase (Homo sapiens, UniProt Q14680); assay type: functional
[27] = biological target: T1, Histone-lysine N-methyltransferase NSD2 (Homo sapiens, UniProt O96028); assay type: biochemical
T1 sequence (O96028 whole entry): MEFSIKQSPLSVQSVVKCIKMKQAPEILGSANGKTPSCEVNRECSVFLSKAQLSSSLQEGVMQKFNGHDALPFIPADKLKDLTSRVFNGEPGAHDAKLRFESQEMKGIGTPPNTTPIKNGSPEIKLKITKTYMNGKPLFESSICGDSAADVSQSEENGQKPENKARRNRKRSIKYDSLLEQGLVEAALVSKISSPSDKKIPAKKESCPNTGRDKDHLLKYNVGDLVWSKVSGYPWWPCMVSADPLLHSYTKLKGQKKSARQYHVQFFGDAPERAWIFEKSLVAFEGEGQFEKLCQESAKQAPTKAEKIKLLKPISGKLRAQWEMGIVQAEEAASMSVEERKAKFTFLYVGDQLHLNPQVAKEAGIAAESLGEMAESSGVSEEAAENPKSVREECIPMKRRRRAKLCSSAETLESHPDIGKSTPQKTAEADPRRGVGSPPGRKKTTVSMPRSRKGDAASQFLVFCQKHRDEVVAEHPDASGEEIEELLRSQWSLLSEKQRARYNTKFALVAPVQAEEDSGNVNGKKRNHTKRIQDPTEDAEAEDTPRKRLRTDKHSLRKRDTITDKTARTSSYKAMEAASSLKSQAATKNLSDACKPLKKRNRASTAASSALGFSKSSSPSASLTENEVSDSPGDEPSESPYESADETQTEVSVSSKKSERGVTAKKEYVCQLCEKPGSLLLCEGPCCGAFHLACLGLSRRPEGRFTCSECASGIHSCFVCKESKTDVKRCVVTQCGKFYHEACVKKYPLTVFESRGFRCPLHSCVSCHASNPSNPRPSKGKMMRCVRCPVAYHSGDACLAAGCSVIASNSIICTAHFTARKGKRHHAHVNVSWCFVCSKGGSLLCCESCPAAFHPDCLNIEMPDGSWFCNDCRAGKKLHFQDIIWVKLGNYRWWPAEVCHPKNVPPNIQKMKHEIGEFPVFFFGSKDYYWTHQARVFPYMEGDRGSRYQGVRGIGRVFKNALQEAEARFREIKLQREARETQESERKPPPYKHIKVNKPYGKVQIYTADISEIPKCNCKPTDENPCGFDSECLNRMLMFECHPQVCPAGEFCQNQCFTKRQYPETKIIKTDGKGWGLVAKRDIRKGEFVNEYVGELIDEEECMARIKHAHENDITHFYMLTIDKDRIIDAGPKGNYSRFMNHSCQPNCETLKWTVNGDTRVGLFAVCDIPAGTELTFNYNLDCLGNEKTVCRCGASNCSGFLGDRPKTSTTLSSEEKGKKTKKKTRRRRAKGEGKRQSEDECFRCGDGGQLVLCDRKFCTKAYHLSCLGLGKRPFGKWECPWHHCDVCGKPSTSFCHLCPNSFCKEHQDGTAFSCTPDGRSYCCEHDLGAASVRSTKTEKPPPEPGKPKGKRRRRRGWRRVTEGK

Ki [1]: > 2 µM (inactive)
Ki [2]: > 10 µM (inactive)
Ki [3]: > 6.31 µM (inactive)
Ki [4]: > 6.31 µM (inactive)
Ki [5]: > 10 µM (inactive)
Ki [6]: 0.631 µM (active)
Ki [7]: > 7.94 µM (inactive)
Ki [8]: > 10 µM (inactive)
Ki [9]: > 3.16 µM (inactive)
Ki [10]: > 1.58 µM (inactive)
Ki [11]: > 7.94 µM (inactive)
Ki [12]: > 3.98 µM (inactive)
Ki [13]: > 10 µM (inactive)
Ki [14]: > 10 µM (inactive)
Ki [15]: > 2 µM (inactive)
Ki [16]: > 7.94 µM (inactive)
Ki [17]: > 6.31 µM (inactive)
Ki [18]: > 2 µM (inactive)
Ki [19]: > 2.51 µM (inactive)
Ki [20]: > 10 µM (inactive)
Ki [21]: > 6.31 µM (inactive)
Ki [22]: > 3.98 µM (inactive)
Ki [23]: > 5.01 µM (inactive)
Ki [24]: 3.98 µM (active)
Ki [25]: > 7.94 µM (inactive)
Ki [26]: > 1.58 µM (inactive)
SMILES: Cn1cncc1C(OCc1c(-c2ccc(OC(F)(F)F)cc2)cc(C#N)c(=O)n1C)c1ccc(C#N)cc1 (configuration not stated)

SMILES: CCc1ccc(S(=O)(=O)/N=C2\C=C(NS(=O)(=O)c3ccccc3)C(=O)c3ccccc32)cc1
AC50 [27]: 5.4 µM (active)
